Results reported in patent publication US10597380B2, “Pyridazinone-based broad spectrum anti-influenza inhibitors” (Hoffmann-La Roche Inc., priority 2017, dated 2020).

Tested on: Influenza A/WSN/33-Luciferase virus
Experiment: microbe, parasite or virus in culture
Format: cell-based
Details: A549, 72 h, luciferase signal three days later, read-out: IC50 antiviral activity (Luciferase reporter assay)

Compound	IC50
O=c1c(Nc2nn(-c3ccc(OC(F)(F)F)cc3)c(=O)c3c2CCC3)cncn1CCN1CC(O)C1 [Example 169, 1-[[1-[2-(3-Hydroxyazetidin-1-yl)ethyl]-6-oxo-pyrimidin-5-yl]amino]-3-[4-(trifluoromethoxy)phenyl]-6,7-dihydro-5H-cyclopenta[d]pyridazin-4-one]	0.307 µM
N[C@H]1CO[C@H](Cn2cccc(Nc3nn(-c4ccc(OC(F)(F)F)cc4)c(=O)c4c3CCC4)c2=O)OC1 [Example 170, trans-1-[[1-[(5-Amino-1,3-dioxan-2-yl)methyl]-2-oxo-3-pyridyl]amino]-3-[4-(trifluoromethoxy)phenyl]-6,7-dihydro-5H-cyclopenta[d]pyridazin-4-one]	0.083 µM
Cc1cc(OC(F)(F)F)ccc1-n1nc(Nc2cccn(C)c2=O)c2c(c1=O)CCC2 [Example 171, 1-[(1-Methyl-2-oxo-3-pyridyl)amino]-3-[2-methyl-4-(trifluoromethoxy)phenyl]-6,7-dihydro-5H-cyclopenta[d]pyridazin-4-one]	6.83 µM
COc1ccc(-n2nc(Nc3cccn(C)c3=O)c3c(c2=O)CCC3)cc1OC [Example 172, 3-(3,4-Dimethoxyphenyl)-1-[(1-methyl-2-oxo-3-pyridyl)amino]-6,7-dihydro-5H-cyclopenta[d]pyridazin-4-one]	3.48 µM
COc1cc(-n2nc(Nc3cccn(C)c3=O)c3c(c2=O)CCC3)ccc1C(F)(F)F [Example 173, 3-[3-Methoxy-4-(trifluoromethyl)phenyl]-1-[(1-methyl-2-oxo-3-pyridyl)amino]-6,7-dihydro-5H-cyclopenta[d]pyridazin-4-one]	74.6 µM
CNC(=O)c1cc(Nc2nn(-c3ccc(OC(F)(F)F)cc3)c(=O)c3c2CCCC3)c(=O)n(C)c1 [Example 174, N,1-Dimethyl-6-oxo-5-[[4-oxo-3-[4-(trifluoromethoxy)phenyl]-5,6,7,8-tetrahydrophthalazin-1-yl]amino]pyridine-3-carboxamide]	14.6 µM
CNC(=O)c1cc(Nc2nn(-c3ccc(OC(F)(F)F)cc3)c(=O)c3ccccc23)c(=O)n(C)c1 [Example 175, N,1-Dimethyl-6-oxo-5-[[4-oxo-3-[4-(trifluoromethoxy)phenyl]phthalazin-1-yl]amino]pyridine-3-carboxamide]	74.4 µM
Cn1cc(C(F)(F)F)cc(Nc2nn(-c3ccc(OC(F)(F)F)cc3)c(=O)c3ccccc23)c1=O [Example 176, 4-[[1-methyl-2-oxo-5-(trifluoromethyl)-3-pyridyl]amino]-2-[4-(trifluoromethoxy)phenyl]phthalazin-1-one]	80.5 µM
